Assay results: PubChem BioAssay (NCI)
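Interpolation was linear, between the two tested concentrations surrounding the appropriate level; five concentrations were tested over 48 hours in 96-well plates. Abbreviation: GI50, concentration required for 50% inhibition of growth. The concentration for full growth arrest is given as TGI.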

Key:
Assay in all cases: NCI-60 cell line screen, 48 h
SW-620 colon = tested on: SW-620 colon
SK-MEL-28 melanoma = tested on: SK-MEL-28 melanoma
MALME-3M melanoma = tested on: MALME-3M melanoma
EKVX NSCLC = tested on: EKVX NSCLC
HT29 colon = tested on: HT29 colon
SNB-19 CNS = tested on: SNB-19 CNS
OVCAR-4 ovarian = tested on: OVCAR-4 ovarian
HCT-15 colon = tested on: HCT-15 colon
NCI/ADR-RES ovarian = tested on: NCI/ADR-RES ovarian
NCI-H522 lung = tested on: NCI-H522 lung
RXF 393 renal = tested on: RXF 393 renal
SF-268 CNS = tested on: SF-268 CNS
KM12 colon = tested on: KM12 colon
U251 CNS = tested on: U251 CNS
ACHN renal = tested on: ACHN renal
BT-549 breast = tested on: BT-549 breast
SNB-75 CNS = tested on: SNB-75 CNS
OVCAR-3 ovarian = tested on: OVCAR-3 ovarian
HOP-92 NSCLC = tested on: HOP-92 NSCLC
SF-539 CNS = tested on: SF-539 CNS
UACC-257 melanoma = tested on: UACC-257 melanoma
SK-MEL-5 melanoma = tested on: SK-MEL-5 melanoma
UO-31 renal = tested on: UO-31 renal
SR leukemia = tested on: SR leukemia
COLO 205 colon = tested on: COLO 205 colon
PC-3 prostate = tested on: PC-3 prostate
CAKI-1 renal = tested on: CAKI-1 renal
DU-145 prostate = tested on: DU-145 prostate
MDA-MB-231 breast = tested on: MDA-MB-231 breast
MDA-MB-435 = tested on: MDA-MB-435
IGROV1 ovarian = tested on: IGROV1 ovarian
NCI-H460 lung = tested on: NCI-H460 lung
HOP-62 NSCLC = tested on: HOP-62 NSCLC
CCRF-CEM leukemia = tested on: CCRF-CEM leukemia
RPMI-8226 leukemia = tested on: RPMI-8226 leukemia
A549 NSCLC = tested on: A549 NSCLC
T-47D breast = tested on: T-47D breast
NCI-H226 lung = tested on: NCI-H226 lung
786-0 renal = tested on: 786-0 renal
LOX IMVI melanoma = tested on: LOX IMVI melanoma
HS 578T breast = tested on: HS 578T breast
HCC-2998 colon = tested on: HCC-2998 colon
MCF7 breast = tested on: MCF7 breast
SK-OV-3 ovarian = tested on: SK-OV-3 ovarian
K-562 leukemia = tested on: K-562 leukemia
UACC-62 melanoma = tested on: UACC-62 melanoma
SN12C renal = tested on: SN12C renal
NCI-H23 lung = tested on: NCI-H23 lung
HCT-116 colon = tested on: HCT-116 colon
HL-60(TB) leukemia = tested on: HL-60(TB) leukemia
A498 renal = tested on: A498 renal
SF-295 CNS = tested on: SF-295 CNS
SK-MEL-2 melanoma = tested on: SK-MEL-2 melanoma
MOLT-4 leukemia = tested on: MOLT-4 leukemia
TK-10 renal = tested on: TK-10 renal
OVCAR-5 ovarian = tested on: OVCAR-5 ovarian
OVCAR-8 ovarian = tested on: OVCAR-8 ovarian

**Q.** How did the GI50 (SW-620 colon) turn out when C#CCN(C)CCCOc1ccc(NC(=O)CCCCCCC(=O)NO)cc1Cl was run?
**A.** 0.698 µM

**Q.** What about the TGI (SW-620 colon) of the same compound?
**A.** 4.31 µM

**Q.** And the GI50 (SK-MEL-28 melanoma)?
**A.** 1.44 µM

**Q.** And the TGI (SK-MEL-28 melanoma)?
**A.** 11.3 µM

**Q.** What about the GI50 (MALME-3M melanoma) of the same compound?
**A.** 0.373 µM

**Q.** And the TGI (MALME-3M melanoma)?
**A.** 28.4 µM

**Q.** What about the GI50 (EKVX NSCLC) of the same compound?
**A.** 3.47 µM

**Q.** And the TGI (EKVX NSCLC)?
**A.** > 100 µM

**Q.** And the GI50 (HT29 colon)?
**A.** 1.42 µM

**Q.** What about the TGI (HT29 colon) of the same compound?
**A.** 43 µM

**Q.** And the GI50 (SNB-19 CNS)?
**A.** 2.26 µM

**Q.** What about the TGI (SNB-19 CNS) of the same compound?
**A.** 17.7 µM

**Q.** And the GI50 (OVCAR-4 ovarian)?
**A.** 4.41 µM

**Q.** What about the TGI (OVCAR-4 ovarian) of the same compound?
**A.** > 100 µM

**Q.** What about the GI50 (HCT-15 colon) of the same compound?
**A.** 5.03 µM

**Q.** What about the TGI (HCT-15 colon) of the same compound?
**A.** > 100 µM

**Q.** What about the GI50 (NCI/ADR-RES ovarian) of the same compound?
**A.** 5.41 µM

**Q.** And the TGI (NCI/ADR-RES ovarian)?
**A.** > 100 µM

**Q.** What about the GI50 (NCI-H522 lung) of the same compound?
**A.** 0.431 µM

**Q.** And the TGI (NCI-H522 lung)?
**A.** 8.2 µM

**Q.** What about the GI50 (RXF 393 renal) of the same compound?
**A.** 0.272 µM

**Q.** What about the TGI (RXF 393 renal) of the same compound?
**A.** 1.11 µM

**Q.** What about the GI50 (SF-268 CNS) of the same compound?
**A.** 2.92 µM

**Q.** And the TGI (SF-268 CNS)?
**A.** 16.4 µM

**Q.** And the GI50 (KM12 colon)?
**A.** 1.91 µM

**Q.** What about the TGI (KM12 colon) of the same compound?
**A.** 15.9 µM

**Q.** And the GI50 (U251 CNS)?
**A.** 1.41 µM

**Q.** And the TGI (U251 CNS)?
**A.** 7.21 µM

**Q.** And the GI50 (ACHN renal)?
**A.** 2.82 µM

**Q.** And the TGI (ACHN renal)?
**A.** 12.7 µM

**Q.** And the GI50 (BT-549 breast)?
**A.** 3.48 µM

**Q.** And the TGI (BT-549 breast)?
**A.** 30 µM

**Q.** And the GI50 (SNB-75 CNS)?
**A.** 0.606 µM

**Q.** And the TGI (SNB-75 CNS)?
**A.** 32.1 µM

**Q.** And the GI50 (OVCAR-3 ovarian)?
**A.** 1.48 µM

**Q.** And the TGI (OVCAR-3 ovarian)?
**A.** 13.2 µM

**Q.** And the GI50 (HOP-92 NSCLC)?
**A.** 0.725 µM

**Q.** What about the TGI (HOP-92 NSCLC) of the same compound?
**A.** 4.56 µM

**Q.** And the GI50 (SF-539 CNS)?
**A.** 1.66 µM

**Q.** And the TGI (SF-539 CNS)?
**A.** 17 µM

**Q.** And the GI50 (UACC-257 melanoma)?
**A.** 0.587 µM

**Q.** What about the TGI (UACC-257 melanoma) of the same compound?
**A.** 13.4 µM

**Q.** And the GI50 (SK-MEL-5 melanoma)?
**A.** 0.853 µM

**Q.** What about the TGI (SK-MEL-5 melanoma) of the same compound?
**A.** 2.43 µM

**Q.** And the GI50 (UO-31 renal)?
**A.** 1.5 µM

**Q.** And the TGI (UO-31 renal)?
**A.** 7.04 µM

**Q.** What about the GI50 (SR leukemia) of the same compound?
**A.** 0.53 µM

**Q.** And the TGI (SR leukemia)?
**A.** > 100 µM

**Q.** And the GI50 (COLO 205 colon)?
**A.** 0.648 µM

**Q.** What about the TGI (COLO 205 colon) of the same compound?
**A.** 2.45 µM

**Q.** And the GI50 (PC-3 prostate)?
**A.** 1.53 µM

**Q.** What about the TGI (PC-3 prostate) of the same compound?
**A.** > 100 µM

**Q.** And the GI50 (CAKI-1 renal)?
**A.** 1.65 µM

**Q.** What about the TGI (CAKI-1 renal) of the same compound?
**A.** 8.08 µM

**Q.** And the GI50 (DU-145 prostate)?
**A.** 1.68 µM

**Q.** What about the TGI (DU-145 prostate) of the same compound?
**A.** > 100 µM

**Q.** And the GI50 (MDA-MB-231 breast)?
**A.** 1.83 µM

**Q.** And the TGI (MDA-MB-231 breast)?
**A.** 16.4 µM

**Q.** And the GI50 (MDA-MB-435)?
**A.** 0.835 µM

**Q.** What about the TGI (MDA-MB-435) of the same compound?
**A.** 5.97 µM

**Q.** And the GI50 (IGROV1 ovarian)?
**A.** 1.23 µM

**Q.** What about the TGI (IGROV1 ovarian) of the same compound?
**A.** 4.34 µM

**Q.** And the GI50 (NCI-H460 lung)?
**A.** 1.1 µM

**Q.** And the TGI (NCI-H460 lung)?
**A.** > 100 µM

**Q.** And the GI50 (HOP-62 NSCLC)?
**A.** 1.85 µM

**Q.** And the TGI (HOP-62 NSCLC)?
**A.** 24 µM

**Q.** And the GI50 (CCRF-CEM leukemia)?
**A.** 0.375 µM

**Q.** And the TGI (CCRF-CEM leukemia)?
**A.** > 100 µM

**Q.** What about the GI50 (RPMI-8226 leukemia) of the same compound?
**A.** 1.05 µM

**Q.** And the TGI (RPMI-8226 leukemia)?
**A.** 6.78 µM

**Q.** And the GI50 (A549 NSCLC)?
**A.** 2.14 µM

**Q.** And the TGI (A549 NSCLC)?
**A.** 13.6 µM

**Q.** And the GI50 (T-47D breast)?
**A.** 0.608 µM

**Q.** And the TGI (T-47D breast)?
**A.** > 100 µM

**Q.** What about the GI50 (NCI-H226 lung) of the same compound?
**A.** 4.13 µM

**Q.** What about the TGI (NCI-H226 lung) of the same compound?
**A.** 30.6 µM

**Q.** What about the GI50 (786-0 renal) of the same compound?
**A.** 3.52 µM

**Q.** What about the TGI (786-0 renal) of the same compound?
**A.** 25.7 µM

**Q.** What about the TGI (LOX IMVI melanoma) of the same compound?
**A.** 0.12 µM

**Q.** What about the GI50 (HS 578T breast) of the same compound?
**A.** 1.15 µM

**Q.** And the TGI (HS 578T breast)?
**A.** 7.31 µM

**Q.** And the GI50 (HCC-2998 colon)?
**A.** 1.47 µM

**Q.** What about the TGI (HCC-2998 colon) of the same compound?
**A.** 4.23 µM

**Q.** And the GI50 (MCF7 breast)?
**A.** 0.813 µM

**Q.** What about the TGI (MCF7 breast) of the same compound?
**A.** 17.4 µM

**Q.** What about the GI50 (SK-OV-3 ovarian) of the same compound?
**A.** 1.54 µM

**Q.** What about the TGI (SK-OV-3 ovarian) of the same compound?
**A.** 12.6 µM

**Q.** What about the GI50 (K-562 leukemia) of the same compound?
**A.** 0.549 µM

**Q.** What about the TGI (K-562 leukemia) of the same compound?
**A.** > 100 µM

**Q.** What about the GI50 (UACC-62 melanoma) of the same compound?
**A.** 0.57 µM

**Q.** What about the TGI (UACC-62 melanoma) of the same compound?
**A.** 4.18 µM

**Q.** What about the GI50 (SN12C renal) of the same compound?
**A.** 2.78 µM

**Q.** What about the TGI (SN12C renal) of the same compound?
**A.** > 100 µM

**Q.** And the GI50 (NCI-H23 lung)?
**A.** 2.44 µM

**Q.** And the TGI (NCI-H23 lung)?
**A.** 18.9 µM

**Q.** What about the GI50 (HCT-116 colon) of the same compound?
**A.** 0.437 µM

**Q.** What about the TGI (HCT-116 colon) of the same compound?
**A.** 6.26 µM

**Q.** And the GI50 (HL-60(TB) leukemia)?
**A.** 0.589 µM

**Q.** And the TGI (HL-60(TB) leukemia)?
**A.** > 100 µM

**Q.** And the GI50 (A498 renal)?
**A.** 1.16 µM

**Q.** What about the TGI (A498 renal) of the same compound?
**A.** 3.04 µM

**Q.** What about the GI50 (SF-295 CNS) of the same compound?
**A.** 1.68 µM

**Q.** And the TGI (SF-295 CNS)?
**A.** 4.71 µM

**Q.** What about the GI50 (SK-MEL-2 melanoma) of the same compound?
**A.** 3.05 µM

**Q.** What about the TGI (SK-MEL-2 melanoma) of the same compound?
**A.** 21.8 µM

**Q.** And the GI50 (MOLT-4 leukemia)?
**A.** 0.338 µM

**Q.** And the TGI (MOLT-4 leukemia)?
**A.** > 100 µM

**Q.** What about the GI50 (TK-10 renal) of the same compound?
**A.** 1.41 µM

**Q.** And the TGI (TK-10 renal)?
**A.** 11 µM

**Q.** And the GI50 (OVCAR-5 ovarian)?
**A.** 1.7 µM

**Q.** And the TGI (OVCAR-5 ovarian)?
**A.** 45.7 µM

**Q.** And the GI50 (OVCAR-8 ovarian)?
**A.** 0.793 µM

**Q.** What about the TGI (OVCAR-8 ovarian) of the same compound?
**A.** > 100 µM
